Results: ChEMBL document CHEMBL4219040, “Modulation of Glycine-Mediated Spinal Neurotransmission for the Treatment of Chronic Pain” (J Med Chem, 2018)

How the values were obtained:
[1] = molecular target: T1, Glycine receptor alpha-3/beta (Homo sapiens, UniProt O75311+P48167); assay: Positive allosteric modulation of human GlyRalpha3beta expressed in CHO cells assessed as potentiation of EC20 glycine-induced response at 5.9 uM by fluorescence based HTS assay; format: cell-based
[2] = molecular target: T1, Glycine receptor alpha-3/beta; assay: Positive allosteric modulation of human GlyRalpha3beta expressed in CHO cells assessed as potentiation of EC20 glycine-induced ion flux at 10 uM by HT assay; format: cell-based
[3] = molecular target: T1, Glycine receptor alpha-3/beta; assay: Positive allosteric modulation of human GlyRalpha3beta expressed in CHO cells assessed as potentiation of EC5 to EC10 glycine-induced response at 10 uM by manual patch clamp assay; format: cell-based
[4] = molecular target: T1, Glycine receptor alpha-3/beta; assay: Positive allosteric modulation of human GlyRalpha3beta expressed in CHO cells assessed as potentiation of EC20 glycine-induced ion flux by HT assay; format: cell-based
[5] = molecular target: T2, P2X purinoceptor 7 (Mus musculus) (UniProt Q9Z1M0); assay: Agonist activity at P2X7 receptor in C57Bl6 mouse lumbar spinal cord slices assessed as increase in glycinergic inhibitory postsynaptic currents after 20 to 26 mins by electrophysiology method relative to control; parameters: scale not given: the % may be the effect or the level left
T2 sequence (whole entry): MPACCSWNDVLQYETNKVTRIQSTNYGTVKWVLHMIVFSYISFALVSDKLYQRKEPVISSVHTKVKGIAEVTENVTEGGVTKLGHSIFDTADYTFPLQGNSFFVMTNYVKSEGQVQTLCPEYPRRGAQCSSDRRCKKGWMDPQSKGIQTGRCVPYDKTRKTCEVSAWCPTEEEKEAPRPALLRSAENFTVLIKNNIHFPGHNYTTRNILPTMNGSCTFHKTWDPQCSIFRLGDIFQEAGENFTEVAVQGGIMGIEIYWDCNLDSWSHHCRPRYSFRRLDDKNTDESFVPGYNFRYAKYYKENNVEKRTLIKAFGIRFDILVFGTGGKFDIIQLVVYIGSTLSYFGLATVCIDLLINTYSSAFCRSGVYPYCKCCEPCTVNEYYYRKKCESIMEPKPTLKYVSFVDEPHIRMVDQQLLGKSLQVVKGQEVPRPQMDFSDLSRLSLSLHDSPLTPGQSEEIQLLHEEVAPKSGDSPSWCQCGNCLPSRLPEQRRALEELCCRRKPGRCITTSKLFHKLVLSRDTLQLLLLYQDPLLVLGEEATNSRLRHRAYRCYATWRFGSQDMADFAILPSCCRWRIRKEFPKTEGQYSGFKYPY

[6] = molecular target: 5-hydroxytryptamine receptor 2A (Homo sapiens, UniProt P28223); assay: Antagonist activity at human 5-HT2A; format: functional
5-hydroxytryptamine receptor 2A, sequence (P28223 whole entry): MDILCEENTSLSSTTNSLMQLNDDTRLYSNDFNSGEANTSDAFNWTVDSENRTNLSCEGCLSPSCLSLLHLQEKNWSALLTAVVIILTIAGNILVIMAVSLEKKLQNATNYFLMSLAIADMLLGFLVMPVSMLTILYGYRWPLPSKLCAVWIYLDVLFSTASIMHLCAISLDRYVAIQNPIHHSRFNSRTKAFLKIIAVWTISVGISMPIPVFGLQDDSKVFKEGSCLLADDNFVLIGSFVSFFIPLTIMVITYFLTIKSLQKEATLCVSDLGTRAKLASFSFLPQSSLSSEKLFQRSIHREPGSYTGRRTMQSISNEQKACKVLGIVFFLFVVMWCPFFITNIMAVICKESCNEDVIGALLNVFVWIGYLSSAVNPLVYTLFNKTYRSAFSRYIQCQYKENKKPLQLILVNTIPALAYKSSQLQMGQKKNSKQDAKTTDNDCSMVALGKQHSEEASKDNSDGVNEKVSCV

[7] = tested on: Rattus norvegicus; assay: Analgesic activity in sc dosed formalin-induced pain rat model by formalin test; format: functional
[8] = tested on: Rattus norvegicus; assay: Antiallodynic activity in po dosed rat spinal nerve ligation model assessed as reduction in mechanical allodynia; format: functional
[9] = tested on: Mus musculus; assay: Antiallodynic activity in ddY mouse partial sciatic nerve ligation-injury model assessed as inhibition of mechanical allodynia by measuring paw withdrawal threshold in response to probing with von Frey hairs administered via iv route; format: functional
[10] = tested on: Mus musculus; assay: Analgesic activity in CFA-induced mechanical hyperalgesia C57BL/6J mouse model assessed as reduction in mechanical paw withdrawal threshold administered sc measured after 2 hrs; format: functional, organism-based
[11] = tested on: Mus musculus; assay: In vivo inhibition of GlyT in CFA-induced mechanical hyperalgesia C57BL/6J mouse model assessed as increase in extracellular glycine level in CSF at 200 mg/kg, sc relative to basal level; format: functional
[12] = tested on: Mus musculus; assay: In vivo receptor occupancy at GlyT-2 in formalin-induced pain mouse model at 25 mg/kg, ip; format: functional
[13] = Unbound brain to plasma concentration ratio in mouse; format: ADME, cell-free; conditions: read-out: K(p,uu,brain)
[14] = molecular target: T3, Sodium- and chloride-dependent glycine transporter 1 (Homo sapiens, UniProt P48067); assay: Inhibition of human GlyT-1 expressed in CHO cells assessed as reduction in [3H]-glycine uptake; format: cell-based
T3 sequence (P48067 whole entry): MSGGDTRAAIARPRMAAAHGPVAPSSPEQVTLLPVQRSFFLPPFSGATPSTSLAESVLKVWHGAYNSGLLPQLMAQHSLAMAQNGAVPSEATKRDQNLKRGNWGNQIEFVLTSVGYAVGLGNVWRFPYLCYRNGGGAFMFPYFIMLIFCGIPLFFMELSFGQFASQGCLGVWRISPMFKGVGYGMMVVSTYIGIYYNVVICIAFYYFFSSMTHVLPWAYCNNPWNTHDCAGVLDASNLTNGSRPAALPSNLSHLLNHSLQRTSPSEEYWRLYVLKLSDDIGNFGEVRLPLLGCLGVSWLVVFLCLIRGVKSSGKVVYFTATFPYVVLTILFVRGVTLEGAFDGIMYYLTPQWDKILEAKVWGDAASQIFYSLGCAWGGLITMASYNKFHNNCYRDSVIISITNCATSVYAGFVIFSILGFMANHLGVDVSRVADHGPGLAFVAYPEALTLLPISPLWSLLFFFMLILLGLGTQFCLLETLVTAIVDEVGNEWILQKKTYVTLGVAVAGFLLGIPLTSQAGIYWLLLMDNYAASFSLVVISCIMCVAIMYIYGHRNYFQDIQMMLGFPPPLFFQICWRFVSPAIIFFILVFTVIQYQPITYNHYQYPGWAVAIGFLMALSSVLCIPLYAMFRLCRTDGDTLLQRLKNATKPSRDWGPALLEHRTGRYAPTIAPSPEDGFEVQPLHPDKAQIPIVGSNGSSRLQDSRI

[15] = species: Rattus norvegicus; assay: Inhibition of GlyT in rat spinal cord lamina X neuron assessed as increase in extracellular glycine level at 10 uM relative to basal level; parameters: scale not given: the % may be the effect or the level left
[16] = Toxicity in ip dosed formalin-induced pain mouse model; format: organism-based; conditions: in vivo
[17] = tested on: Mus musculus; assay: In vivo receptor occupancy at GlyT-2 in formalin-induced pain mouse model at 0.06 mg/kg, ip; format: functional
[18] = tested on: Mus musculus; assay: In vivo receptor occupancy at GlyT-2 in formalin-induced pain mouse model at 20 mg/kg, ip; format: functional
[19] = tested on: Mus musculus; assay: Analgesic activity in formalin-induced pain mouse model assessed as reduction in phase 2 paw licking behavior at 25 mg/kg, ip; format: functional; parameters: scale not given: the % may be the effect or the level left
[20] = tested on: Mus musculus; assay: Analgesic activity in formalin-induced pain mouse model assessed as reduction in phase 2 paw licking behavior at 100 mg/kg, ip; format: functional; parameters: scale not given: the % may be the effect or the level left
[21] = tested on: Mus musculus; assay: In vivo receptor occupancy at GlyT-2 in formalin-induced pain mouse model at 100 mg/kg, ip; format: functional
[22] = molecular target: T4, Sodium- and chloride-dependent glycine transporter 2 (Homo sapiens, UniProt Q9Y345); assay: Inhibition of GlyT-2 (unknown origin)
T4 sequence (Q9Y345 whole entry): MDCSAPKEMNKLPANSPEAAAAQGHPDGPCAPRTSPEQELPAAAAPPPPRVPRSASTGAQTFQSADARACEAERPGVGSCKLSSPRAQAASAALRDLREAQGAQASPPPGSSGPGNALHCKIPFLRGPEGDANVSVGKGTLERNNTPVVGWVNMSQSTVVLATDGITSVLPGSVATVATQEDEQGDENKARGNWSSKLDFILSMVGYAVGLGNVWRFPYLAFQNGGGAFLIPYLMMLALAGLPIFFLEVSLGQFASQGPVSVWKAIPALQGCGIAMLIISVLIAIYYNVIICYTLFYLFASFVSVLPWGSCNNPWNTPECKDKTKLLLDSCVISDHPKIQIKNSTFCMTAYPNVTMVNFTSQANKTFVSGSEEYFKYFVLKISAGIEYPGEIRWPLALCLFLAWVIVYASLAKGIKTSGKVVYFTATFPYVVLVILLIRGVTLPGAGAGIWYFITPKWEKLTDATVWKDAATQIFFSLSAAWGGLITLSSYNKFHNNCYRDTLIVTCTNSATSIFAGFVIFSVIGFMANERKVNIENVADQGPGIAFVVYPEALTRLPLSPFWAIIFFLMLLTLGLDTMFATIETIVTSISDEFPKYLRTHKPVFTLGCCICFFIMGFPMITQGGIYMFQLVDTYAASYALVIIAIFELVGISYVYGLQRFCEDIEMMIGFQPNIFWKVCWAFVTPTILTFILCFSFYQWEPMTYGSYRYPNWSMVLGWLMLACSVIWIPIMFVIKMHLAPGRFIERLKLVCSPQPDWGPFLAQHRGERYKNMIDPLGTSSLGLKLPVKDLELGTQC

[23] = species: Rattus norvegicus; assay: Antiallodynic activity in Sprague-Dawley rat model of spared nerve injury-induced allodynia assessed as inhibition of electrically evoked inhibitory post-synaptic current amplitude in spinal cord by electrophysiology method; format: functional
[24] = molecular target: T3, Sodium- and chloride-dependent glycine transporter 1; assay: Inhibition of human GlyT-1
[25] = molecular target: T4, Sodium- and chloride-dependent glycine transporter 2; assay: Inhibition of human GlyT-2 expressed in HEK293 cells assessed as reduction in [3H]-glycine uptake preincubated for 30 mins followed by 3H]-glycine addition measured after 30 mins by liquid scintillation counting method; format: cell-based
[26] = molecular target: T3, Sodium- and chloride-dependent glycine transporter 1; assay: Inhibition of human GlyT-1 expressed in HEK293 cells assessed as reduction in [3H]-glycine uptake preincubated for 30 mins followed by 3H]-glycine addition measured after 30 mins by liquid scintillation counting method; format: cell-based
[27] = species: Homo sapiens; assay: Selectivity ratio of IC50 for human GlyT-1 expressed in HEK293 cells to IC50 for human GlyT-2 expressed in HEK293 cells; format: cell-based
[28] = species: Rattus norvegicus; assay: Antiallodynic activity in spinal cord injury Sprague-Dawley rat model assessed as inhibition of non-voiding contraction amplitude at 10 ug, it relative to control; format: functional
[29] = species: Rattus norvegicus; assay: Antiallodynic activity in spinal cord injury Sprague-Dawley rat model assessed as inhibition of non-voiding contraction frequency at 10 ug, it relative to control; format: functional
[30] = species: Rattus norvegicus; assay: Antiallodynic activity in spinal cord injury Sprague-Dawley rat model assessed as inhibition of non-voiding contraction amplitude at 30 ug, it relative to control; format: functional
[31] = species: Rattus norvegicus; assay: Antiallodynic activity in spinal cord injury Sprague-Dawley rat model assessed as inhibition of non-voiding contraction frequency at 30 ug, it relative to control; format: functional

T1 sequence (O75311 whole entry): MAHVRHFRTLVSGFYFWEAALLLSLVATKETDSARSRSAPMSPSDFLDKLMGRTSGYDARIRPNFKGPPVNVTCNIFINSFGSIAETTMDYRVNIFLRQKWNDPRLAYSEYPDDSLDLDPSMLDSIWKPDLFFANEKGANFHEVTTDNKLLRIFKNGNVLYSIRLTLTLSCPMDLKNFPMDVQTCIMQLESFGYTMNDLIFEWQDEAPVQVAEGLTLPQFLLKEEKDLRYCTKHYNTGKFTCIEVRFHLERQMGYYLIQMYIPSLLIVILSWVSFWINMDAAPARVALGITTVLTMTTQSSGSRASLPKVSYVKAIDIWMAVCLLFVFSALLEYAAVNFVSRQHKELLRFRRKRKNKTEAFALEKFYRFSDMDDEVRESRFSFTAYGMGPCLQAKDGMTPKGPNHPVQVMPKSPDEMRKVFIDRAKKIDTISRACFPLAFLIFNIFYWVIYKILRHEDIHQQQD
T1 sequence (P48167 whole entry): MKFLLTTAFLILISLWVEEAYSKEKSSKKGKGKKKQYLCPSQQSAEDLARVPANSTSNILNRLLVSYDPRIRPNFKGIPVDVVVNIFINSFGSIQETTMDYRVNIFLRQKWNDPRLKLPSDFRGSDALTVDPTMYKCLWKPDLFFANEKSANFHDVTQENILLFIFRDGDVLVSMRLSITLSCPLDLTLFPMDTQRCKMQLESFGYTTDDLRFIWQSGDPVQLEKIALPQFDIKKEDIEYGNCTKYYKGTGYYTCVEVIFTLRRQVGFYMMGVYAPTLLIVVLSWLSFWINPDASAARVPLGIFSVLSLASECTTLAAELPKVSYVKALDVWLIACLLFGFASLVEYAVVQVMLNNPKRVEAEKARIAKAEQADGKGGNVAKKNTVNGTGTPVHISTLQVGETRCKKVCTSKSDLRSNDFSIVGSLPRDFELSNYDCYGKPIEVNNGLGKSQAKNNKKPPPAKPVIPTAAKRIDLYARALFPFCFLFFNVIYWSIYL

## O=C(O)c1ccc(C[C@@H]2Sc3ccccc3N(Cc3ccccc3C(F)(F)F)C2=O)cc1F
[1]
  Activity: 161%
[2]
  Activity: 44%
[3]
  Activity: 259%

## CC(C)(C)c1cc(C(C)(C)C)c(O)c(C(=O)O)c1O
[1]
  Activity: 67%
[2]
  Activity: 182%
[4]
  EC50: 0.0135 µM
[3]
  Activity: 2060%

## Nc1ncnc2c1ncn2[C@@H]1O[C@H](COP(=O)(O)OP(=O)(O)OP(=O)(O)O)[C@@H](OC(=O)c2ccc(C(=O)c3ccccc3)cc2)[C@H]1O
[5]
  Activity: 135%

## O=C(O)c1ccc(C[C@H]2Sc3c(F)cccc3N(Cc3ccccc3C(F)(F)F)C2=O)cc1
[1]
  Activity: 52%
[2]
  Activity: 59%
[4]
  EC50: 0.661 µM
[3]
  Activity: 396%

## C#Cc1cc(C(=O)OC)cc(-c2ncco2)c1
[1]
  Activity: 52%
[2]
  Activity: 49%
[4]
  EC50: 10.2 µM
[3]
  Activity: 255%

## CN1C(=O)[C@@H]2CN(S(=O)(=O)c3ccc4c(c3)OCO4)C[C@@H]2c2cnccc21
[1]
  Activity: 94%
[2]
  Activity: 95%
[3]
  Activity: 1350%

## CCCCOc1c(OC)cc(C(=O)NCC2(N(C)C)CCOCC2)cc1OC
[6]
  IC50: 1.3 µM
[7]
  ED50: 20 mg/kg
[8]
  ED50: 80 mg/kg

## O=S(=O)(NCCOc1cccc2cccnc12)c1ccccc1
[1]
  Activity: 65%
[2]
  Activity: 182%
[4]
  EC50: 3.98 µM
[3]
  Activity: 2710%

## O=[N+]([O-])c1cccc(S(=O)(=O)NCCOc2cccc3cccnc23)c1
[1]
  Activity: 23%
[2]
  Activity: 98%
[3]
  Activity: 136%

## NCC1(CC(=O)O)CCCCC1 [GABAPENTIN]
[9]
  ED50: 8200 ng

## CCNCC(=O)O
[10]
  EC50: 98 mg/kg
[11]
  inhibition in vivo at 200 mg/kg: 25%

## COc1cc(C(=O)NCC2(N(C)C)CCCC2)cc(OC)c1OCc1ccccc1
[12]
  Occ: 36%
[13]
  Kp uu: 0.5
[14]
  IC50: > 100 µM
[15]
  Activity: 337%
[9]
  ED50: 11 ng
[16]
  MTD: 2 mg/kg
[17]
  Occ: 6%
[18]
  Occ: 82%
[19]
  Activity: 33%
[20]
  Activity: 80%
[21]
  Occ: 60%

## CCCCC/C=C\C/C=C\C/C=C\C/C=C\CCCC(=O)NCC(=O)O [ARACHIDONOYL GLYCINE]
[22]
  IC50: 3 µM

## NS(=O)(=O)c1cc2c(cc1Cl)NC(C1CC3C=CC1C3)NS2(=O)=O (stereo not drawn) [CYCLOTHIAZIDE]
[23]
  inhibition (INH): 37.9%

## COc1ccc2c(c1)CC[C@H](CN(C)CC(=O)O)[C@@H]2c1ccccc1 [ORG-25935]
[24]
  IC50: 0.1 µM

## N[C@@H](COC(c1cccc(F)c1)c1ccccc1OCc1ccccc1)C(=O)O (stereo partly drawn)
[25]
  IC50: 0.1 µM
[26]
  IC50: 4 µM
[27]
  Ratio IC50: 40
[13]
  Kp uu: 0.036
[28]
  inhibition (INH): 26%
[29]
  inhibition (INH): 65%
[30]
  inhibition (INH): 37%
[31]
  inhibition (INH): 76%

## CN1c2ncccc2N(Cc2ccccc2C(F)(F)F)C(=O)[C@H]1Cc1ccc(C(N)=O)cc1
[1]
  Activity: 28%
[2]
  Activity: 64%
[3]
  Activity: 303%

## CNCC(=O)O [SARCOSINE]
[24]
  IC50: 91 µM
